ChEMBL document CHEMBL1146637, “Structure-activity relationship in the oxazolidinone-quinolone hybrid series: influence of the central spacer on the antibacterial activity and the mode of action” (Bioorg Med Chem Lett, 2003)
Converted amounts (≈) assume the structure as drawn.

Columns and labels:
Escherichia coli [1] = assay: In vitro antibacterial activity against Escherichia coli AS19 (Eco2), permeable mutant was determined; format: functional
Haemophilus influenzae = assay: In vitro antibacterial activity against Haemophilus influenzae 11 (Hin) was determined; format: functional
Enterococcus faecalis = assay: In vitro antibacterial activity against Enterococcus faecalis ATCC 29212 (Efs) was determined; format: functional
Enterococcus faecium = assay: In vitro antibacterial activity against vancomycin and ciprofloxacin resistant Enterococcus faecium (Efm CIP) was determined; format: functional
Staphylococcus aureus [2] = assay: In vitro antibacterial activity against ciprofloxacin and methicillin resistant Staphylococcus aureus (Sau2CIP) was determined; format: functional
Escherichia coli [3] = assay: In vitro antibacterial activity against Escherichia coli ATCC 25922 (Ecol) was determined; format: functional
Staphylococcus aureus [4] = assay: In vitro antibacterial activity against oxazolidinone Linezolid resistant Staphylococcus aureus (Sau3LZD) was determined; format: functional
Staphylococcus aureus [5] = assay: In vitro antibacterial activity against […] Staphylococcus aureus ATCC 29213 (Saul); format: functional
[6] = Inhibitory activity against Escherichia coli Topoisomerase IV in relaxation assay; format: functional
Escherichia coli [7] = assay: In vitro inhibitory activity against protein synthesis was determined by transcription/translation assay with Escherichia coli S30 Extract System.; format: functional
DNA gyrase = DNA gyrase (Escherichia coli, UniProt P0AES4+P0AES6); assay: Inhibitory activity against DNA gyrase enzyme was determined by supercoiling assay with Escherichia coli DNA gyrase; format: protein-complex assay

Row | Compound | MIC (Escherichia coli [1]) | MIC (Haemophilus influenzae) | MIC (Enterococcus faecalis) | MIC (Enterococcus faecium) | MIC (Staphylococcus aureus [2]) | MIC (Escherichia coli [3]) | MIC (Staphylococcus aureus [4]) | MIC (Staphylococcus aureus [5]) | IC50 [6] | IC50 (Escherichia coli [7]) | IC50 (DNA gyrase)
1 | CC(=O)NC[C@H]1CN(c2ccc(OCCC3CCN(c4nc5c(cc4F)c(=O)c(C(=O)O)cn5C4CC4)C3)c(F)c2)C(=O)O1 (stereo not given in full) | ≤ 0.06 µg/mL | 0.5 µg/mL (≈ 0.818 µM) | 0.06 µg/mL (≈ 0.0981 µM) | 0.125 µg/mL (≈ 0.204 µM) | 0.125 µg/mL (≈ 0.204 µM) | 2 µg/mL (≈ 3.27 µM) | 0.125 µg/mL (≈ 0.204 µM) | 0.125 µg/mL (≈ 0.204 µM) |  |  | 
2 | CC(=O)NC[C@H]1CN(c2ccc(OC[C@@H]3CCN(c4nc5c(cc4F)c(=O)c(C(=O)O)cn5C4CC4)C3)c(F)c2)C(=O)O1 | ≤ 0.06 µg/mL | 0.125 µg/mL (≈ 0.209 µM) | 0.125 µg/mL (≈ 0.209 µM) | 0.5 µg/mL (≈ 0.837 µM) | 0.25 µg/mL (≈ 0.418 µM) | 1 µg/mL (≈ 1.67 µM) | ≤ 0.06 µg/mL | ≤ 0.06 µg/mL |  |  | 
3 | CC(=O)NC[C@H]1CN(c2ccc(OC3CCN(c4nc5c(cc4F)c(=O)c(C(=O)O)cn5C4CC4)CC3)c(F)c2)C(=O)O1 | 0.25 µg/mL (≈ 0.418 µM) | 1 µg/mL (≈ 1.67 µM) | 0.125 µg/mL (≈ 0.209 µM) | 0.25 µg/mL (≈ 0.418 µM) | 0.25 µg/mL (≈ 0.418 µM) | 32 µg/mL (≈ 53.5 µM) | 1 µg/mL (≈ 1.67 µM) | 0.25 µg/mL (≈ 0.418 µM) | 5 µM | 5.2 µM | 50 µM
4 | CC(=O)NC[C@H]1CN(c2ccc(OC3CCCN(c4nc5c(cc4F)c(=O)c(C(=O)O)cn5C4CC4)CC3)c(F)c2)C(=O)O1 (stereo not given in full) | ≤ 0.06 µg/mL | 1 µg/mL (≈ 1.64 µM) | 0.25 µg/mL (≈ 0.409 µM) | 0.5 µg/mL (≈ 0.818 µM) | 0.25 µg/mL (≈ 0.409 µM) | 8 µg/mL (≈ 13.1 µM) | 0.5 µg/mL (≈ 0.818 µM) | 0.5 µg/mL (≈ 0.818 µM) |  |  | 
5 | CC(=O)NC[C@H]1CN(c2ccc(OCC3CCN(c4nc5c(cc4F)c(=O)c(C(=O)O)cn5C4CC4)C3)c(F)c2)C(=O)O1 (stereo not given in full) | ≤ 0.06 µg/mL | 0.125 µg/mL (≈ 0.209 µM) | 0.125 µg/mL (≈ 0.209 µM) | 0.25 µg/mL (≈ 0.418 µM) | 0.125 µg/mL (≈ 0.209 µM) | 1 µg/mL (≈ 1.67 µM) | ≤ 0.06 µg/mL | 0.125 µg/mL (≈ 0.209 µM) |  | 1.5 µM | 2 µM
6 | CC(=O)NC[C@H]1CN(c2ccc(OC3CCCN(c4nc5c(cc4F)c(=O)c(C(=O)O)cn5C4CC4)C3)c(F)c2)C(=O)O1 (stereo not given in full) | 8 µg/mL (≈ 13.4 µM) | 2 µg/mL (≈ 3.35 µM) | 16 µg/mL (≈ 26.8 µM) | > 32 µg/mL | 16 µg/mL (≈ 26.8 µM) | > 32 µg/mL | 16 µg/mL (≈ 26.8 µM) | 32 µg/mL (≈ 53.5 µM) |  |  | 
7 | CC(=O)NC[C@H]1CN(c2ccc(O[C@@H]3CCN(c4nc5c(cc4F)c(=O)c(C(=O)O)cn5C4CC4)C3)c(F)c2)C(=O)O1 | ≤ 0.06 µg/mL | 0.5 µg/mL (≈ 0.857 µM) | 0.5 µg/mL (≈ 0.857 µM) | 2 µg/mL (≈ 3.43 µM) | 0.5 µg/mL (≈ 0.857 µM) | 8 µg/mL (≈ 13.7 µM) | 0.5 µg/mL (≈ 0.857 µM) | 1 µg/mL (≈ 1.71 µM) |  |  | 
8 | CC(=O)NC[C@H]1CN(c2ccc(N[C@@H]3CCN(c4nc5c(cc4F)c(=O)c(C(=O)O)cn5C4CC4)C3)c(F)c2)C(=O)O1 | ≤ 0.06 µg/mL | ≤ 0.06 µg/mL | ≤ 0.06 µg/mL | 8 µg/mL (≈ 13.7 µM) | 1 µg/mL (≈ 1.72 µM) | 0.5 µg/mL (≈ 0.858 µM) | ≤ 0.06 µg/mL | ≤ 0.06 µg/mL |  |  | 
9 | CC(=O)NC[C@H]1CN(c2ccc(OCC3CCN(c4nc5c(cc4F)c(=O)c(C(=O)O)cn5C4CC4)CC3)c(F)c2)C(=O)O1 | 0.125 µg/mL (≈ 0.204 µM) | 0.5 µg/mL (≈ 0.818 µM) | ≤ 0.06 µg/mL | 0.125 µg/mL (≈ 0.204 µM) | 0.125 µg/mL (≈ 0.204 µM) | > 32 µg/mL | 1 µg/mL (≈ 1.64 µM) | 0.125 µg/mL (≈ 0.204 µM) |  |  | 
10 | CC(=O)NC[C@H]1CN(c2ccc(OC[C@H]3CCN(c4nc5c(cc4F)c(=O)c(C(=O)O)cn5C4CC4)C3)c(F)c2)C(=O)O1 | ≤ 0.06 µg/mL | 0.25 µg/mL (≈ 0.418 µM) | 0.06 µg/mL (≈ 0.1 µM) | 0.125 µg/mL (≈ 0.209 µM) | 0.125 µg/mL (≈ 0.209 µM) | 1 µg/mL (≈ 1.67 µM) | 0.125 µg/mL (≈ 0.209 µM) | 0.125 µg/mL (≈ 0.209 µM) |  |  | 
11 | CC(=O)NC[C@H]1CN(c2ccc(OC3CN(c4nc5c(cc4F)c(=O)c(C(=O)O)cn5C4CC4)C3)c(F)c2)C(=O)O1 | ≤ 0.06 µg/mL | 0.125 µg/mL (≈ 0.219 µM) | 0.5 µg/mL (≈ 0.878 µM) | 2 µg/mL (≈ 3.51 µM) | 0.5 µg/mL (≈ 0.878 µM) | 1 µg/mL (≈ 1.76 µM) | ≤ 0.06 µg/mL | 0.25 µg/mL (≈ 0.439 µM) |  |  | 
12 | CC(=O)NC[C@H]1CN(c2ccc(OCCC3CCN(c4nc5c(cc4F)c(=O)c(C(=O)O)cn5C4CC4)CC3)c(F)c2)C(=O)O1 | ≤ 0.06 µg/mL | 2 µg/mL (≈ 3.2 µM) | 0.125 µg/mL (≈ 0.2 µM) | 0.125 µg/mL (≈ 0.2 µM) | 0.125 µg/mL (≈ 0.2 µM) | > 32 µg/mL | 1 µg/mL (≈ 1.6 µM) | 0.125 µg/mL (≈ 0.2 µM) |  |  | 
13 | CC(=O)NC[C@H]1CN(c2ccc(N3CCN(c4nc5c(cc4F)c(=O)c(C(=O)O)cn5C4CC4)CC3)c(F)c2)C(=O)O1 | 0.06 µg/mL (≈ 0.103 µM) | 1 µg/mL (≈ 1.72 µM) | 0.125 µg/mL (≈ 0.215 µM) | 0.25 µg/mL (≈ 0.429 µM) | 0.25 µg/mL (≈ 0.429 µM) | 32 µg/mL (≈ 54.9 µM) | 8 µg/mL (≈ 13.7 µM) | 0.25 µg/mL (≈ 0.429 µM) | 10 µM | 2.8 µM | 50 µM
14 | CC(=O)NC[C@H]1CN(c2ccc(O[C@H]3CCN(c4nc5c(cc4F)c(=O)c(C(=O)O)cn5C4CC4)C3)c(F)c2)C(=O)O1 | ≤ 0.06 µg/mL | ≤ 0.06 µg/mL | 0.125 µg/mL (≈ 0.214 µM) | 1 µg/mL (≈ 1.71 µM) | 0.25 µg/mL (≈ 0.428 µM) | 1 µg/mL (≈ 1.71 µM) | ≤ 0.06 µg/mL | ≤ 0.06 µg/mL | 3 µM | 6.7 µM | 10 µM
15 | O=C(O)c1cn(C2CC2)c2cc(N3CCNCC3)c(F)cc2c1=O [CIPROFLOXACIN] | ≤ 0.03 µg/mL | ≤ 0.03 µg/mL | 1 µg/mL (≈ 3.02 µM) | > 32 µg/mL | > 32 µg/mL | ≤ 0.03 µg/mL | 0.5 µg/mL (≈ 1.51 µM) | 0.5 µg/mL (≈ 1.51 µM) | 2.5 µM | > 20 µM | 
16 | CC(=O)NC[C@H]1CN(c2ccc(N3CCOCC3)c(F)c2)C(=O)O1 [LINEZOLID] | 8 µg/mL (≈ 23.7 µM) | 8 µg/mL (≈ 23.7 µM) |  | 2 µg/mL (≈ 5.93 µM) | 1 µg/mL (≈ 2.96 µM) | > 64 µg/mL | 64 µg/mL (≈ 190 µM) |  |  | 4.1 µM | 
